Patent publication US20220257546A1, “KETONE BODIES ENCLOSED IN MICROBEADS” (Ketoswiss AG, priority 2019, published 2022)

Legend:
[1] = βHB blood plasma concentration after 18 g βHB in microbeads or free (Example 3 cross-over trial); format: in vivo, human; details: n=10
Excerpt: A dose of βHB contained in microbeads was 20 g of microbeads containing a mix of 50% R-3-hydroxybutyrate mineral salts (Na/Ca/K/Mg Blend 1:1:1:2) and 50% R-3-hydroxybutyric acid (βHB formulation). In particular, said βHB formulation was enriched in pockets dispersed throughout a polymerized yellow pea protein matrix of the microbead particles and constituted approximately 89 to 90% of the weight of the microbead. Thus, the βHB formulation comprised in said dose was about 18 g, in particular about 17.8 g.
The dose of non-enclosed (free) βHB was also about 18 g, in particular about 17.8 g, and the dose of empty microbeads was about 2 g, in particular about 2.2 g. Thus, the free βHB and empty microbeads were direct controls of the composition comprising βHB contained in microbeads.
For administration, one dose was suspended in 250 ml of lemon-flavored non-caloric water.
Participants arrived at the laboratory between 7.30 and 9.00 after an overnight fast, and provided a urine sample for hydration assessment (PEN Refractometer, Atago Instruments). Next, a fasting blood sample was taken via a cannula inserted into a superficial forearm vein for serial blood sampling. After providing a “fasting” blood sample, participants ingested a 250 mL lemon flavored non-caloric water drink wherein the 18 g dose of a microbead comprising the βHB formulation was suspended. After supplementation, baseline determinations tests were repeated for comparison between the pre- and post-supplementation periods. Every 30 min for three hours after ingestion, a blood sample was taken. After 3 hours, a blood sample was taken at 1-hour intervals. After 8 hours, a blood sample was taken at 2-hour intervals. Participants remained in the lab at quiet rest throughout this time period and were permitted to use entertainment headsets and the digital library and were allowed make short walks outside. […] The blood samples were, at least for the determination of AcAc levels, directly analyzed within 2 hours (or otherwise stored at −80° C. before analysis). […]

[2] = in vivo
Excerpt: (§1) The participants went to the visits A, B and C in a randomized order.
(§2) The experimental setup allowed to directly determine the physiological effects of ingesting βHB enclosed in microbeads compared to standard non-enclosed βHB. To distinguish the effects of βHB from effects of the enclosing material, i.e. the pea protein, participants have also ingested empty microbeads on one trial day.

[3] = Glucose blood plasma levels, Example 3 trial; format: in vivo, human; details: about 18 g βHB formulation; snack provided at 6 h; n=10
Experimental: Participants arrived at the laboratory between 7.30 and 9.00 after an overnight fast, and provided a urine sample for hydration assessment (PEN Refractometer, Atago Instruments). Next, a fasting blood sample was taken via a cannula inserted into a superficial forearm vein for serial blood sampling. After providing a “fasting” blood sample, participants ingested a 250 mL lemon flavored non-caloric water drink wherein the 18 g dose of a microbead comprising the βHB formulation was suspended. After supplementation, baseline determinations tests were repeated for comparison between the pre- and post-supplementation periods. Every 30 min for three hours after ingestion, a blood sample was taken. After 3 hours, a blood sample was taken at 1-hour intervals. After 8 hours, a blood sample was taken at 2-hour intervals. Participants remained in the lab at quiet rest throughout this time period and were permitted to use entertainment headsets and the digital library and were allowed make short walks outside. Participants were offered some small snack 6 hours after consumption of the prototype drink which they could choose from low caloric yoghurts, muesli bars and low caloric fruit juices. […] The blood samples were, at least for the determination of AcAc levels, directly analyzed within 2 hours (or otherwise stored at −80° C. before analysis). […]

[4] = Tolerability of βHB, Example 3 trial; details: about 18 g dose
Excerpt: as §1, §2

[5] = about 18 g βHB formulation oral

For C[C@@H](O)CC(=O)O [free βHB, R-3-hydroxybutyric acid], the “average plasma βHB concentration at peak” value ([1]; about 18 g βHB formulation oral in 250 ml lemon-flavored water, first measurement time-point) was 1.5 mM, the “time within which plasma βHB concentration dropped to baseline levels” value [1, 5] was no more than 2 h and the “time-point of peak average plasma βHB concentration” value [1, 5] was 0.5 h. The “tolerability of the dose” value [2] was “poorly tolerated”, the “blood glucose levels upon ingestion” value [3] was “not altered for at least 4 hours” and the “participants expressing mild nausea” value ([4]; of 10 participants) was 4 participants. The “participants expressing severe discomfort and sickness” value ([4]; of 10 participants) was 3 participants and the “participants reporting gastrointestinal distress (stomach cramping, upset, nausea, bloating, diarrhea)” value ([4]; within the first hour upon ingestion) was 7 of 10 participants.
